Measurements reported in patent US11572590B2, “Methods for evaluating tumor cell spheroids using 3D microfluidic cell culture device” (Dana-Farber Cancer Institute, Inc., priority 2017, dated 2023).
Where two headings read alike, the source gives them in different places.

What was measured:
Experiment in all cases: SelectScreen Kinase Profiling, single point inhibition and IC50 for off-target kinases
Format in all cases: biochemical
off-target kinases [1] = molecular target: off-target kinases (Homo sapiens, UniProt P78368); details: CSNK1G2 (CK1 gamma 2); Cmpd1 1000 μM; ATP Km app; ZLYTE
Sequence of off-target kinases (Homo sapiens, UniProt P78368) (P78368 whole entry): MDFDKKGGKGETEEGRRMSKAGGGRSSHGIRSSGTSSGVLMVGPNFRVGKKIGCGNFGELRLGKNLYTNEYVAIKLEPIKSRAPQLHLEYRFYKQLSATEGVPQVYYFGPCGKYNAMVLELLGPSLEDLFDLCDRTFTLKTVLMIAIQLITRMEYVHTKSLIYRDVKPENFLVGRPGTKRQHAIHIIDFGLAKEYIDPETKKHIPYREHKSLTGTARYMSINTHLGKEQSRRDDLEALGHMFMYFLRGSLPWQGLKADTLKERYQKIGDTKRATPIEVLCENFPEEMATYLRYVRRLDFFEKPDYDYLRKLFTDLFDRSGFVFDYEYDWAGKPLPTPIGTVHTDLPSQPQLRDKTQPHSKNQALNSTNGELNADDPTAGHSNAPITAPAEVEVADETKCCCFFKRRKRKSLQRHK

off-target kinases [2] = molecular target: T1, off-target kinases (Homo sapiens, UniProt Q8WTQ7); details: GRK7, ZLYTE, ATP Km app
T1 sequence (Q8WTQ7 1-553): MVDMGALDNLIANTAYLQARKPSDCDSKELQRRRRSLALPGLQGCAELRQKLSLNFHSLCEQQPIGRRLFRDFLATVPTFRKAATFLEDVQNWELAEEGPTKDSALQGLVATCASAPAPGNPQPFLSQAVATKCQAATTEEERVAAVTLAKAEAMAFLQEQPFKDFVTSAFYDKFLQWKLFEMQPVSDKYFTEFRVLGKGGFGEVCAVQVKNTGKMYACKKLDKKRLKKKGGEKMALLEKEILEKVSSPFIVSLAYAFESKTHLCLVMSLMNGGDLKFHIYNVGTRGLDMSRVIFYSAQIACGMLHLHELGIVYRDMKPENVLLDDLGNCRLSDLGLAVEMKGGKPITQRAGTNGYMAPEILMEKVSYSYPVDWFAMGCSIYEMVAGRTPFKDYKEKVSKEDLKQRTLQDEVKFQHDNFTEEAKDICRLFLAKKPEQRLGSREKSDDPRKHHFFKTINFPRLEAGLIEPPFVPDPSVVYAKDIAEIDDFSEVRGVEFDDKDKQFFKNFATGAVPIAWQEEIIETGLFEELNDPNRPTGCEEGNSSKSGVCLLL

off-target kinases [3] = molecular target: T2, off-target kinases (Homo sapiens, UniProt P42679); details: MATK (HYL), ZLYTE, ATP Km app
T2 sequence (P42679 1-507): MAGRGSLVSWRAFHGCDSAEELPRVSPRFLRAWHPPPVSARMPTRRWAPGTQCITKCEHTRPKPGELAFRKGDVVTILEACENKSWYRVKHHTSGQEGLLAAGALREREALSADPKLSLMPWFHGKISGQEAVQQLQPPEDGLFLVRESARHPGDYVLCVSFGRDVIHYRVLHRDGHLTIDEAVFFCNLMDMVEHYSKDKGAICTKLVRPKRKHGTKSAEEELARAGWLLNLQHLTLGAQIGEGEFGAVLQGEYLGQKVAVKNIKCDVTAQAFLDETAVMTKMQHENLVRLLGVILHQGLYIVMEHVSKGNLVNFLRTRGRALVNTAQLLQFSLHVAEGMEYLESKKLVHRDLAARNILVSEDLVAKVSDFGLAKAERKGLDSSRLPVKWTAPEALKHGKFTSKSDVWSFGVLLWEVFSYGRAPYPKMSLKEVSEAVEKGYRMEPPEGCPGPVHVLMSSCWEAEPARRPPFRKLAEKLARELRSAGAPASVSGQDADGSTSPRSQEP

off-target kinases [4] = molecular target: off-target kinases (Homo sapiens, UniProt Q13131)
Sequence of off-target kinases (Homo sapiens, UniProt Q13131) (Q13131 whole entry): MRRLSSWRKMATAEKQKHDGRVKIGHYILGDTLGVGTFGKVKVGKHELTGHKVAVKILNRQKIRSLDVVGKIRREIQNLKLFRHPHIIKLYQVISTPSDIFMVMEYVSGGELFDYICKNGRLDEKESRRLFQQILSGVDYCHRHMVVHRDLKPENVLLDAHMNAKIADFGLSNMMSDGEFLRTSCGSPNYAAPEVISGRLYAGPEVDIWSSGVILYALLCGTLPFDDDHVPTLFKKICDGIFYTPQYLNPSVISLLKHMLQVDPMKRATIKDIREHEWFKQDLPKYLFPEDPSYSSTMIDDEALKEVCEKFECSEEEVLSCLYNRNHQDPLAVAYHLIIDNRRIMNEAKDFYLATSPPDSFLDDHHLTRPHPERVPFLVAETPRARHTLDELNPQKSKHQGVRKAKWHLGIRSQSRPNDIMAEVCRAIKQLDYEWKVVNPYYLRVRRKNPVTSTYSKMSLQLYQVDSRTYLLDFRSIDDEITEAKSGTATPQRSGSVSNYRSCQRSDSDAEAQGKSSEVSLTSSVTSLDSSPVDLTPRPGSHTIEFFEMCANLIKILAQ

off-target kinases [5] = molecular target: off-target kinases (Homo sapiens, UniProt Q9Y243); details: AKT3 (PKB gamma), ZLYTE, ATP Km app
Sequence of off-target kinases (Homo sapiens, UniProt Q9Y243) (Q9Y243 whole entry): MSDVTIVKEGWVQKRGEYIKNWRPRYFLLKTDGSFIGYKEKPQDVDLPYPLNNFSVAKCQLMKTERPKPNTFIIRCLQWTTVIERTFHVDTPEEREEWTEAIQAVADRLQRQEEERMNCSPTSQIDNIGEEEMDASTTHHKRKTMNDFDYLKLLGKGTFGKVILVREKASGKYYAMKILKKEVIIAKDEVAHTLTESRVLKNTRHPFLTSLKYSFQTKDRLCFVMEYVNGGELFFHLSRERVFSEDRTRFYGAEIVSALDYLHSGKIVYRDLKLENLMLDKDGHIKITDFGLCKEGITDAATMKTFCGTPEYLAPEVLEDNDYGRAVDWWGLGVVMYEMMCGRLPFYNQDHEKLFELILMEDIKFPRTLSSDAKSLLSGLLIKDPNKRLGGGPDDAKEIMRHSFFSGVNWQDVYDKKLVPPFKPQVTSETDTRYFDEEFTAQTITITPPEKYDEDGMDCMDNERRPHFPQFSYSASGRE

off-target kinases [6] = molecular target: off-target kinases (Homo sapiens, UniProt P06493)
Sequence of off-target kinases (Homo sapiens, UniProt P06493) (P06493 whole entry): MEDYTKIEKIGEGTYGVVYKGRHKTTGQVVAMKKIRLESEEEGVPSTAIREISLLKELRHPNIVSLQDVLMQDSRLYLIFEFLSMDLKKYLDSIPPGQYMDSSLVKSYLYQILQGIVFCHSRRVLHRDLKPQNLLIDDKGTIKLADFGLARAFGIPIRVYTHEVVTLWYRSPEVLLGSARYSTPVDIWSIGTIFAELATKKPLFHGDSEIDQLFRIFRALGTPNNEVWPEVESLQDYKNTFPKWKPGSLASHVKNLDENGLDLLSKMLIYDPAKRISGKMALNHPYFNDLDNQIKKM

N#Cc1cc(-c2ncnc(Nc3ccc(N4CCN(C5COC5)CC4)cc3)n2)ccc1OC1CCOCC1 [Compound 1, 5-(4-((4-(4-(oxetan-3-yl)piperazin-1-yl)phenyl)amino)-1,3,5-triazin-2-yl)-2-((tetrahydro-2H-pyran-4-yl)oxy)benzonitrile]
% Inhibition 1 (off-target kinases [1]): −7%
% Inhibition 2 (off-target kinases [1]): −16%
% Inhibition Avg (off-target kinases [1]): −11%
inhibition (off-target kinases [2]; read-out: % Inhibition 1): 3%
inhibition (off-target kinases [2]; read-out: % Inhibition 2): 5%
inhibition (off-target kinases [2]; read-out: % Inhibition Avg): 4%
inhibition (off-target kinases [3]; read-out: % Inhibition 1): 1%
inhibition (off-target kinases [3]; read-out: % Inhibition 2): 2%
inhibition (off-target kinases [3]; read-out: % Inhibition Avg): 2%
inhibition (off-target kinases [4]; AMPK (A1/B1/G2), LanthaScreen Binding, read-out: % Inhibition 1): 40%
inhibition (off-target kinases [4]; AMPK (A1/B1/G2), LanthaScreen Binding, read-out: % Inhibition 2): 40%
inhibition (off-target kinases [4]; AMPK (A1/B1/G2), LanthaScreen Binding, read-out: % Inhibition Avg): 40%
inhibition (off-target kinases [4]; AMPK (A1/B1/G3), LanthaScreen Binding, read-out: % Inhibition 1): 37%
inhibition (off-target kinases [4]; AMPK (A1/B1/G3), LanthaScreen Binding, read-out: % Inhibition 2): 42%
inhibition (off-target kinases [4]; AMPK (A1/B1/G3), LanthaScreen Binding, read-out: % Inhibition Avg): 39%
inhibition (off-target kinases [4]; AMPK (A1/B2/G1), LanthaScreen Binding, read-out: % Inhibition 1): 49%
inhibition (off-target kinases [4]; AMPK (A1/B2/G1), LanthaScreen Binding, read-out: % Inhibition 2): 43%
inhibition (off-target kinases [4]; AMPK (A1/B2/G1), LanthaScreen Binding, read-out: % Inhibition Avg): 46%
inhibition (off-target kinases [4]; AMPK A1/B1/G1, ATP Km app, ZLYTE, read-out: % Inhibition 1): 58%
inhibition (off-target kinases [4]; AMPK A1/B1/G1, ATP Km app, ZLYTE, read-out: % Inhibition 2): 53%
inhibition (off-target kinases [4]; AMPK A1/B1/G1, ATP Km app, ZLYTE, read-out: % Inhibition Avg): 55%
inhibition (off-target kinases [5]; read-out: % Inhibition 1): 3%
inhibition (off-target kinases [5]; read-out: % Inhibition 2): 1%
inhibition (off-target kinases [5]; read-out: % Inhibition Avg): 2%
inhibition (off-target kinases [6]; CDK1/cyclin A2, LanthaScreen Binding, read-out: % Inhibition 1): 2%
inhibition (off-target kinases [6]; CDK1/cyclin A2, LanthaScreen Binding, read-out: % Inhibition 2): 12%
inhibition (off-target kinases [6]; CDK1/cyclin A2, LanthaScreen Binding, read-out: % Inhibition Avg): 7%
inhibition (off-target kinases [6]; CDK1/cyclin B, ZLYTE, ATP Km app, read-out: % Inhibition 1): 16%
inhibition (off-target kinases [6]; CDK1/cyclin B, ZLYTE, ATP Km app, read-out: % Inhibition 2): 15%
inhibition (off-target kinases [6]; CDK1/cyclin B, ZLYTE, ATP Km app, read-out: % Inhibition Avg): 16%
